From publication PMC5374420, “In Search of Small Molecule Inhibitors Targeting the Flexible CK2 Subunit Interface” (Pharmaceuticals, 2017) come the findings set out here.

One experiment deals with T1, CK2 holoenzyme (Homo sapiens, UniProt P68400).
T1 construct: made in house
Nature of the experiment: CK2 kinase assay with CK2β-dependent eIF2β-derived peptide substrate. In kind it is biochemical. To be noted: result in words. The source says: In a previous study, we used the X-ray structure of CK2β in the holoenzyme complex as a template for the design of a conformationally constrained 13-mer peptide (Pc 13) derived from the CK2β C-terminal domain and centred around the Tyr188 and Phe190 hotspots. Pc 13 is an eight-residue peptide (Arg186–His193) that contains a cluster of hydrophobic residues (Leu187, Tyr188 and Ile192) and three additional glycine residues, cyclized via two cysteine residues to ‘staple’ its conformation and to mimic the binding face of CK2β with CK2α [15]. […]
Figure 2 CK2β-derived cyclic peptides inhibit CK2 activity in vitro. […] Phosphorylated proteins were separated by SDS/PAGE (Sodium dodecylsulfate/ Polyacrylamide gel electrophoresis) and analyzed by autoradiography. […]
Figure 4 Inhibitory activity of a TAT-Pc analogue in vitro. […] CK2 activity was then determined with CK2β-dependent or independent peptide substrates; (B) [^35S]-labeled CK2α was incubated with biotinylated MBP-CK2β immobilized on streptavidin coated plates (preformed complex) in the absence (1) or presence (2) of TAT-Pc 13. […] After washing, the amount of [^35S]-labeled CK2α remaining in the complex was determined by radioactivity counting. […]

In another experiment the test system is WT MCF-10A cells. As to the kind of experiment: Cell death / viability, LIVE&DEAD assay, WT cells. To be noted: MCF-10A; 20 µM z-VAD or 30 µM Necrostatin-1 for 5 h, then 25 µM TAT-Pc 13 for 4 h. In kind it is cell-based. As for the experimental part:
(§1) Figure 8 Cellular effects of TAT-Pc 13. (A) MCF-10A cells were incubated with 25 µM of TAT-Pc 13 for 3 h and imaged with phase microscopy (upper panel) or with increasing concentrations of TAT-Pc 13 for 2 h and cell viability was evaluated using the LIVE&DEAD™ assay. Live cells fluoresce bright green (530 nm), whereas dead cells fluoresce red-orange (645 nm) (lower panel, scale bare: 100 µm); (B) WT (○-○) or CK2β-depleted (●-●) MCF-10A cells were incubated for 4 h with increasing concentrations of TAT-Pc 13 and cell death was evaluated using the LIVE&DEAD™ assay recording fluorescence at 645 nm. Representative data shown from two independent experiments in duplicate; (C) MCF-10A cells were pre-treated in the absence or presence of 20 µM z-VAD for 5 h and then incubated for 4 h with 25 µM random TAT-Pc 13 or TAT-Pc 13 and cell viability was evaluated as in (A) (scale bare: 100 µm); and (D) intracellular events induced by increasing concentrations of TAT-Pc 13. After 12 h of treatment, 786-O cells were lysed and analyzed by Western blot. TEXT PRINTED IN THE PICTURE: (B) TAT-Pc 13: TAT-Pc 13 (μM): 48; TAT-Pc 13 (μM): 60 DOUBTS OF THE COPYIST ABOUT THIS PICTURE: Panel B: 48 and 60 are printed in red at the x axis, where dashed lines drop from the two curves at about 50 on the Cell death (%) axis. No measure name (e.g. IC50) is printed with them.
Cells were seeded in 96-well microtiter plates at a concentration of 1 × 10^5 cells/mL and were allowed to attach for 24 h at 37 °C in 5% CO2. Cells were then exposed to different concentrations of TAT-Pc 13 for the indicated time. Cell viability was evaluated using the fluorescence-based LIVE&DEAD™ assay (Molecular Probes, Thermo Fisher Scientific, Courtaboeuf, France) according to the manufacturer. Images were taken with an Apotome-equipped Zeiss Axioimager microscope (Zeiss, Oberkochen, German) recording the fluorescence at 530 nm (Live cells) and 645 nm (dead cells) respectively using a FluoStar Optima plate reader (BMG LabTech, Ortenberg, Germany).

Experiment [1] deals with p21 Thr145 phosphorylation, survivin expression, AKT activation. Nature of the experiment: Western blot of intracellular events (AKT, phospho-p21 Thr145, survivin). In kind it is cell-based. The settings on record: 786-O cells, 12 h, increasing concentrations of CX-4945 (Figure S1). As for the experimental part:
This was confirmed using the LIVE&DEAD^TM cell viability assay that provides a visual readout of cell integrity (Figure 8A lower panel). This cellular effect was also analyzed after treatment of WT or CK2β-depleted MCF-10A cells with increasing concentrations of TAT-Pc 13. TAT-Pc 13 caused a cell death in both cell types, which was already detectable at a concentration of 25 µM and became massive at 50–60 µM (Figure 8B). […] In order to investigate the intracellular events induced by TAT-Pc 13, MCF-10A cells were incubated with increasing concentrations of TAT-Pc 13 and analyzed by Western blot.
as §1, with “them. […]” for “them.”
A general note: Immunoblotting shows a protein as a band on a membrane.

Experiment [2] deals with T2, CK2 holoenzyme (CK2α + CK2β) (Homo sapiens, UniProt P68400).
T2 construct: made in house
Nature of the experiment: CK2-mediated phosphorylation of GST-Olig2 and of CK2β (autoradiography). The settings on record: 25 µM peptide. In kind it is biochemical. On the procedure: Figure 2 CK2β-derived cyclic peptides inhibit CK2 activity in vitro. (A) a series of cyclized CK2β-derived peptide analogues varying in length from eight to 11 amino acids were tested for their effect on the phosphorylation of eIF2β-derived peptide substrate whose phosphorylation relies on the holoenzyme formation. Representative data shown from two independent experiments; (B) structure of Pc 11 (CC); (C) antagonist effect of Pc 11 (CC) on CK2-mediated phosphorylation of the CK2β-dependent substrate Olig2. CK2α was incubated alone or with CK2β in the absence or presence of 25 µM random Pc 11 (CC) or Pc 11 (CC) for 15 min at 4 °C, followed by the addition of GST (Gluthatione S-Transferase)-Olig2 (5 μg) and 25 μM [γ-^32P]ATP/MgCl2 for 5 min at room temperature. Phosphorylated proteins were separated by SDS/PAGE (Sodium dodecylsulfate/ Polyacrylamide gel electrophoresis) and analyzed by autoradiography. The gel was stained with coomassie blue to visualize GST-Olig2. TEXT PRINTED IN THE PICTURE: (A) no label printed: IC50 = 1-3 μM DOUBTS OF THE COPYIST ABOUT THIS PICTURE: Panel A: "IC50 = 1-3 μM" is printed once inside the plot, near the falling curves, and is not tied to any one peptide.

Where a SMILES comes first, the peptide text is derived from it. Bridges are numbered along the chain shown (N, C = ends). The star is where a group is joined. Cbz = O=C(OCc1ccccc1)*; CH2F = FC*

T2 sequence (P68400 whole entry): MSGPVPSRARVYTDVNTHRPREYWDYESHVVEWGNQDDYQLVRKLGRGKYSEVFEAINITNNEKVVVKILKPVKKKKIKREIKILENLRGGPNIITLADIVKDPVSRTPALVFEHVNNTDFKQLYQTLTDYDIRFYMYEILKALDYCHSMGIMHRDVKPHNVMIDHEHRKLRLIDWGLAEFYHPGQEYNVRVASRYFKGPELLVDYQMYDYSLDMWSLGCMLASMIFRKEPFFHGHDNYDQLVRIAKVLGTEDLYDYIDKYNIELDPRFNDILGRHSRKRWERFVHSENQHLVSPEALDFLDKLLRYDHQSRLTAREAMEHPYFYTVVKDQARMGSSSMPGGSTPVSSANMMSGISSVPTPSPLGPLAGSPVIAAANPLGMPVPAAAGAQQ
T1 sequence (P68400 whole entry): as above

`CC(C)C[C@@H]1NC(=O)[C@H](CCCNC(=N)N)NC(=O)[C@@H](N)CSSC[C@@H](C(=O)O)NC(=O)[C@H](CCCCN)NC(=O)[C@H](Cc2ccccc2)NC(=O)CNC(=O)[C@H](Cc2ccc(O)cc2)NC1=O` [Pc 8 (CC)] (H-CRLYGFKC-OH; disulfide 1-8): the “effect on phosphorylation of eIF2β peptide substrate” value at CK2 holoenzyme is “inactive”.

For `CN1C(=O)C(Cc2c[nH]c3ccccc23)NC1=S` (stereo not drawn) [Necrostatin-1, reference compound], the “effect of inhibitor pre-treatment on TAT-Pc 13-induced cell death” value in the experiment on WT MCF-10A cells is listed as “prevented”.

As to `O=C(O)c1ccc2c(c1)nc(Nc1cccc(Cl)c1)c1ccncc12` [CX-4945, 5-(3-chlorophenylamino)benzo[c][2,6]naphthyridine-8-carboxylic acid, reference compound], the “phosphorylation of p21” value in experiment [1] is “strongly inhibited”.

With `COC(=O)C[C@H](NC(=O)[C@H](C)NC(=O)[C@@H](NC(=O)OCc1ccccc1)C(C)C)C(=O)CF` [z-VAD-FMK, reference compound] (Cbz-Val-Ala-Asp(OMe)-CH2F), the “effect of inhibitor pre-treatment on TAT-Pc 13-induced cell death” value in the experiment with WT MCF-10A cells was “insensitive”.

As to `CC[C@H](C)[C@@H]1NC(=O)[C@H](CCCCN)NC(=O)[C@H](Cc2ccccc2)NC(=O)CNC(=O)[C@H](Cc2ccc(O)cc2)NC(=O)[C@H](CC(C)C)NC(=O)[C@H](CCCNC(=N)N)NC(=O)[C@@H](N)CSSC[C@@H](C(=O)O)NC(=O)CNC(=O)[C@H](Cc2c[nH]cn2)NC1=O` [Pc 11 (CC)] (H-CRLYGFKIHGC-OH; disulfide 1-11), in experiment [2], the “phosphorylation of CK2β in the holoenzyme” value was “significantly affected”. In experiment [2] (15 min at 4 °C, then GST-Olig2 and 25 μM ATP for 5 min at room temperature), the Olig-2 phosphorylation result is “strong decrease”.
